This test concerns the target acyl CoA: cholesterol acyltransferase (ACAT). As to the kind of experiment: Inhibiting activity against ACAT activity of rabbit's liver microsome. The settings on record: rabbit's liver microsome enzyme fraction, 1-14C-oleoyl CoA, 37° C.; read-out: Inhibiting activity against ACAT activity: IC (M) 50%. The test is classed as biochemical. On the procedure: Inhibiting activity against acyl CoA: cholesterol acyltransferase (ACAT) activity of rabbit's liver microsome According to Heider's method [J. G. Heider et al., J. of Lipid Res. Vol. 24, 1127-34 (1983)], rabbit's liver microsome was treated to obtain enzyme fraction. To 0.154M of phosphoric acid buffer solution (pH 7.4), 2 mM of dithiothreitol, 36 μM of bovine serum albumin and 10 to 100 μg of microsome fraction, liposome prepared by Suckling's method [K. E. […] Then, 36 μM oleoyl CoA containing 1-^14 C-oleoyl CoA was added and the whole mixture was heated for 10 minutes at the temperature of 37° C. The reaction was ceased by adding chloroform/methanol (=2/1). Upon stirring, cholesterol oleate extracted into chloroform layer was separated by thin layer chromatography and the radioactivity was then determined as ACAT activity.
Background: Liver microsomes are vesicles of endoplasmic reticulum, rich in cytochrome P450 enzymes.

For one compound, IC50 results are on record in patent US5091419A, “Diurea derivatives useful as medicaments and processes for the preparation thereof” (Yamanouchi Pharmaceutical Co., Ltd., priority 1988, dated 1992).

Consider `O=C(Nc1ccc(F)cc1F)N(Cc1cccc(CN(C(=O)Nc2ccc(F)cc2F)C2CCCCCC2)c1)C1CCCCCC1` [Example 1, 1,3-bis[[1-cycloheptyl-3-(2,4-difluorophenyl)ureido]methyl]benzene], for which the IC50 worked out at 1.8e-08 M.
